According to PMC6680845, “Screening and Evaluation of Xanthine Oxidase Inhibitors from Gnetum parvifolium in China” (Molecules, 2019):

Assays:
xanthine oxidase (XO) = xanthine oxidase (XO) (Bos taurus, UniProt P80457); assay: XO inhibition type and kinetics (Lineweaver-Burk and secondary plots); format: biochemical; conditions: for mode of XO inhibition: Lineweaver-Burk plots
Procedure: In order to further exploring the inhibitory activities of four inhibitors, the inhibition type and inhibition kinetics constants were assayed.
For inhibition test, 20 μL of XO solution (1 mg/mL in buffers) and 1 mL of sample with different concentrations were mixed in a quartz cuvette. Then, 1 mL of […] (1 mg/mL) was added to start reaction and the increase of absorbance at 295 nm in 100 s was recorded by an UV-Vis Spectrophotometer (UV2700, Shimadzu, Kyoto, Japan). […] All experiments were performed in triplicate. The inhibition of XO was calculated by the following formula. Inhibition% = (1 − ΔAs/ΔA0) × 100 (1) where ΔAs and ΔA0 are the changes of absorbance for sample and blank, respectively.

[1] = DPPH free radical scavenging test; conditions: DPPH 0.1 mM in methanol, 30 min in dark, 517 nm
Procedure: The DPPH and ABTS· radical scavenging tests were measured according to the reported method with some modifications. For DPPH test, 0.5 mL of sample with different concentrations were mixed thoroughly with 2 mL of DPPH solution (0.1 mM in methanol). The mixture was then kept in dark for 30 min. Finally, the absorbance of solution was measured by an UV-Vis Spectrophotometer (UV2700, Shimadzu, Kyoto, Japan) at 517 nm.
(§1) For ABTS test, ABTS solution (2 mL of ABTS stock solution (0.01 M) added to 58 mL phosphate buffers, pH 7.0) was incubated for 12 h and diluted with methanol for use. Then, 0.5 mL of samples with different concentrations were mixed thoroughly with 2 mL of ABTS solution. The mixture was kept in dark for 30 min, and the absorbance at 734 nm was measured by an UV-Vis Spectrophotometer. The same amount of water was used as control instead of sample. All experiments were performed in triplicate. The scavenging activity of DPPH and ABTS· radicals was calculated by the following formula: Radical scavenging rate% = 1 − As/A0 × 100 (2) where A0 was the absorbance of control and As was the absorbance of sample.

[2] = ABTS radical scavenging test; conditions: 30 min in dark, 734 nm
Procedure: as §1

xanthine oxidase (XO), sequence (P80457 2-1332): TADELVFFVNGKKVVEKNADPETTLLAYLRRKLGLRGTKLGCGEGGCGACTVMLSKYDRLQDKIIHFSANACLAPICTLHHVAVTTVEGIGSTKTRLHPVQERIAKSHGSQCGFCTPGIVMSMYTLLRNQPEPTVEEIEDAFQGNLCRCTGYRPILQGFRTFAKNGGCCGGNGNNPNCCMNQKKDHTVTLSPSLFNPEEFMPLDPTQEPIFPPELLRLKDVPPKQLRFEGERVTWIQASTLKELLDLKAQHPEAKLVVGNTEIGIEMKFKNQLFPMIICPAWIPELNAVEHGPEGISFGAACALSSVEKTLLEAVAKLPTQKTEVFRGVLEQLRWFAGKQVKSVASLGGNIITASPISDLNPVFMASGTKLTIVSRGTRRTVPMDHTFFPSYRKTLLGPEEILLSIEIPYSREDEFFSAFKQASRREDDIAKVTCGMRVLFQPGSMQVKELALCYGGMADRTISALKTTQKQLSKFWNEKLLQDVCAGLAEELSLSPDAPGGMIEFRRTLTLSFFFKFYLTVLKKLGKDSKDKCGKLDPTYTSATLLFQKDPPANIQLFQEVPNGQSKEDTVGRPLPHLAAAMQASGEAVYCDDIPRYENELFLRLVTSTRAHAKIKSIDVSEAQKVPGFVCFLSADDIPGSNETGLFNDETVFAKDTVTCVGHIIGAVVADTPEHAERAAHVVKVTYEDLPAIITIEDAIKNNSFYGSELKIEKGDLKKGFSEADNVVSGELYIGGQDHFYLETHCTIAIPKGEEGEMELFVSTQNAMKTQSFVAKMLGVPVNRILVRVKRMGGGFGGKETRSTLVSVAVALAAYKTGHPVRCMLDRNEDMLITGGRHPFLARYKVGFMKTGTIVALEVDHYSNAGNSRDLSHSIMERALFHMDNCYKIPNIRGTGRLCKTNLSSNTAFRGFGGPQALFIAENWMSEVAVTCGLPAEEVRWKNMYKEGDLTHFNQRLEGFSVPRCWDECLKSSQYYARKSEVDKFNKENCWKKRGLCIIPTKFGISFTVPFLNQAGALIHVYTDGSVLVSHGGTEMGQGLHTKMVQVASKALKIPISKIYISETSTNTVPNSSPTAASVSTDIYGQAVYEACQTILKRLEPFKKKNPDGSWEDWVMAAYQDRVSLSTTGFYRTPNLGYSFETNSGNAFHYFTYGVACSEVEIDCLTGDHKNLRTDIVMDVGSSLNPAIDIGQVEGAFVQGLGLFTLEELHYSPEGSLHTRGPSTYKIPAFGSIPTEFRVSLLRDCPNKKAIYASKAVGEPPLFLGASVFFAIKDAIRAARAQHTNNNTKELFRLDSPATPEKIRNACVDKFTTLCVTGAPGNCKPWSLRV

Row | Structure (SMILES) | mode of XO inhibition (xanthine oxidase (XO)) | Vmax (xanthine oxidase (XO); inhibitor [C] 2.6 μM) | Vmax (xanthine oxidase (XO); inhibitor [C] 3.9 μM) | Vmax (xanthine oxidase (XO); inhibitor [C] 5.3 μM) | EC50 [1] | EC50 [2] | Vmax (xanthine oxidase (XO); inhibitor [C] 3.3 μM) | Vmax (xanthine oxidase (XO); inhibitor [C] 4.9 μM) | Vmax (xanthine oxidase (XO); inhibitor [C] 6.6 μM)
1 | COc1cc(/C=C/c2cc(O)cc(O)c2)ccc1O [Isorhapontigenin] | uncompetitive type | 0.168 mmol/min | 0.134 mmol/min | 0.061 mmol/min | 1450 µM | 300 µM | – | – | –
2 | Oc1cc(O)cc(/C=C/c2ccc(O)c(O)c2)c1 [Piceatannol] | competitive type | – | – | – | 40 µM | – | 0.160 mmol/min | 0.164 mmol/min | 0.157 mmol/min
3 | Oc1ccc(/C=C/c2cc(O)cc(O)c2)cc1 [Resveratrol] | uncompetitive type | – | – | – | – | – | 0.173 mmol/min | 0.106 mmol/min | 0.088 mmol/min
